Test system: Plasmodium falciparum
Assay: GSK_TCMDC: Inhibition of Plasmodium falciparum 3D7 in whole erythrocytes, using parasite LDH activity as an index of growth.
Type: functional, organism-based
Conditions: Plasmodium falciparum, 3D7

Structure (SMILES)	XC50 [nM]
c1ccc(C(OCCC2CCN(Cc3cccnc3)CC2)c2ccccc2)cc1	817
CN(C)Cc1cccc(-c2ccc(Nc3nccc(NCC(O)c4ccccc4)n3)cc2)c1 (stereo not drawn)	136
Clc1ccc(-c2[nH]c3ccccc3c2CN2CCC(N3CCCCC3)CC2)cc1	1060
N=C(NCCc1ccccc1Cl)c1ccc2ccccc2c1	1630
Cc1cc(N[C@@H](CC(C)C)C(=O)NCc2cccc(F)c2)nc(NCCc2ccccc2)n1	1080
CN1CC(c2ccc(Cl)c(Cl)c2)OC1=N (stereo not drawn)	283
COc1ccc(Nc2cc(C)nc(NCc3ccc4c(c3)OCO4)n2)cc1	766
O=C(Nc1ccc(C(=O)N2CCN(CCN3CCN(c4cccc(C(F)(F)F)c4)CC3)CC2)cc1)c1ccc(OC(F)(F)F)cc1	691
O=C(O)c1ccc(-c2cnc3ccc(NC4CCC(O)CC4)nn23)cc1 (stereo not drawn)	995
CCC(C)(C)c1ccc2nc(N)nc(N)c2c1C	5.21
CC1(C)NC(N)=NC(=N)N1OCCCNC(=O)c1ccc([N+](=O)[O-])cc1	3.2
CC(=O)Nc1ncc(C(=O)Nc2cccc(-c3ccc(-c4nc5cc(F)ccc5[nH]4)cc3)c2)s1	622
Cc1cc(=O)c2cc(Oc3cccc(OC(F)(F)F)c3)ccc2[nH]1	862
Cc1cnc(Nc2ccccc2)nc1N[C@@H](CCCN)C(=O)Nc1ccccc1	807
COc1cc(Nc2nccc(N3CCC(NC(=O)C4COc5ccccc5O4)C3)n2)cc(OC)c1OC (stereo not drawn)	924
O=C(Nc1ccc(Oc2ccccc2)cc1)N(Cc1ccc(-c2cccc(CN3CCNCC3)c2)cc1)C1CCN(Cc2ccccc2)CC1	881
COc1ccccc1C1CCN(C2CCC(NC(=O)/C=C/c3ccc(C(F)(F)F)cc3)CC2)CC1 (stereo not drawn)	1160
CCCCCCNC(=O)C(N)CCCC(N)C(=O)NCCCCCC (stereo not drawn)	162
CC1CCC2(CC1)NC(N)=NC(=N)N2OCCCCCCCCO (stereo not drawn)	147
Cn1cncc1C(=O)Nc1ccc(-c2cccc(-c3nc4cc(C(F)(F)F)ccc4[nH]3)c2)cc1	858
CCn1c(=O)c(C(=O)Nc2cc(Cl)c(OC)cc2OC)nc2ccccc21	244
CO/C(=C\C=C\c1cc2cc(Cl)c(Cl)cc2[nH]1)C(=O)Nc1ccc(NCCN(C)C)nc1	765
c1ccc2cc3c(Nc4ccc(N5CCCCCC5)cc4)ccnc3cc2c1	936

Structure (SMILES)	XC50 [nM]
COc1ccc2nccc([C@@H](O)CN3CCC(NC(=O)/C=C/c4cc([N+](=O)[O-])ccc4OC)CC3)c2c1	258
CCc1cn2c3c(cc(C(=O)N[C@@H](Cc4ccccc4)[C@H](O)CNCc4ccccc4C)cc13)N(C)S(=O)(=O)CC2	271
CCSc1nnc(C2CCCN(CC(=O)Nc3cc(C(F)(F)F)ccc3Cl)C2)n1CC (stereo not drawn)	232
O=C(NCc1cccc2ccccc12)C1CCCN(C(=O)c2ccc(O)c(-c3ccc(Cl)c(Cl)c3)c2)C1 (stereo not drawn)	1030
FC(F)(F)c1ccc2[nH]c(-c3ccc(-c4ccc(CN5CCN(c6cnccn6)CC5)cc4)cc3)nc2c1	687
C[C@H](Cc1ccc(S(=O)(=O)c2ccc(C[C@@H](C)NC[C@H](O)c3cccc(Cl)c3)cc2)cc1)NC[C@H](O)c1cccc(Cl)c1	258
CC(=O)NCCNc1cc(N2CCc3ncnc(Nc4ccc(OCc5c(F)cccc5F)c(Cl)c4)c3C2)ncn1	160
CCOC(=O)c1cc(C(=O)OC)c2ccccn12	223
CC(CN(C)C)C(=O)Nc1ccc(-c2cccc(-c3nc4cc(C(F)(F)F)ccc4[nH]3)c2)cc1 (stereo not drawn)	210
CCn1c(Sc2ccc(C#N)c([N+](=O)[O-])c2)nnc1-c1ccc(Cl)cc1	552
CN=c1nc(NN=Cc2ccccc2Cl)[nH]c(=Nc2cccc(C(F)(F)F)c2)[nH]1	915
CS(=O)(=O)N(c1cccc(F)c1)c1cc(C(=O)N[C@@H](Cc2ccccc2)[C@H](O)CNCc2cccc(C(F)(F)F)c2)cc(N2CCCC2=O)c1	910
c1cn(-c2ccc(CNc3nccc(Nc4ccc(OCCN5CCOCC5)cc4)n3)cc2)cn1	878
CCCC(C)NC[C@@H](O)[C@H](Cc1ccccc1)NC(=O)c1cc(NCC)cc(N2CCCCS2(=O)=O)c1 (stereo partly drawn)	163
COc1ccc(CN2CCC(NCc3cccc([N+](=O)[O-])c3)CC2)cc1	910
Fc1cc(CN2CCCC2)ccc1OCCCN1CCN(c2cccc(Cl)c2Cl)CC1	1040
COc1cc(C(F)(F)F)c2cc(CNCCCNc3nc4ccccc4[nH]3)[nH]c2c1	305
CC(C)c1ccc(NC(=O)NCCCC2CCCN(CCCCCNC(=O)/C=C/c3ccc(Cl)c(Cl)c3)C2)cc1 (stereo not drawn)	957
Cc1ccc2[nH]c(-c3ccccc3N)cc2c1	923
Cc1cccc(CN2CCCN(Cc3ccc(C(=O)Nc4ccc(Cl)cc4)cc3)CC2)c1	596
COc1ccc(NC(=O)Nc2cccc(-c3cccc(-c4nc5ccccc5[nH]4)c3)c2)cc1	309
Cn1ccnc1-c1nc2ccccn2c1NCC(=O)Nc1ccccc1N1CCCCC1	980
COc1c(CN2CCOCC2)cccc1-c1cc2c(-c3ccc(C(=O)O)c(C(C)C)c3)ccnc2[nH]1	742

Structure (SMILES)	XC50 [nM]
c1cc(-c2ccc(CNCCc3ccncc3)cc2)cc(-c2nc3ccccc3[nH]2)c1	139
O=C(Nc1ccc(S(=O)(=O)N2CCCCC2)cc1)c1cc(-c2ccccc2O)n[nH]1	846
Cc1cccc2nc(-c3ccc(-c4cccc(NC(=O)C(C)CN5CCN(C)CC5)c4)s3)[nH]c12 (stereo not drawn)	748
O=C(NCCOc1ccccc1)[C@H](Cc1ccccc1)Nc1ccnc(NCC2CCCCC2)n1	1200
CCC1(C)N=C(N)N=C(N)N1c1ccc(Cl)cc1 (stereo not drawn)	159
OC(CNc1ccnc(Nc2cccc(Cl)c2)n1)c1ccccc1C(F)(F)F (stereo not drawn)	902
CC(CN(C)C)Oc1ccc2nc(-c3cccc(OCc4ccccc4)c3)[nH]c2c1C#N (stereo not drawn)	407
CC(=O)Nc1nc(C(=O)Nc2cccc(-c3cccc(-c4nc5cccc(C)c5[nH]4)c3)c2)cs1	115
Fc1cc(Cl)ccc1Nc1ccnc2cc(-c3ccc(CN4CCCCC4)o3)ccc12	337
O=C(NCCc1ccccc1F)c1ccc(N2CCN(c3ccncc3)CC2)cn1	1080
O=C(Cc1cccc2ccccc12)N1CCc2cc3nccc(N4CCN5CCC[C@H]5C4)c3cc21	777
N#CC(c1ccc(Br)cc1)c1ccc2c(C(F)(F)F)cc(C(F)(F)F)nc2n1 (stereo not drawn)	440
CC[C@H]1CN2CC[C@H]1C[C@H]2[C@H](O)c1cc(N2CCCC(CO)C2)nc2ccc(OC)cc12 (stereo partly drawn)	77.5
CCC[C@@H]([C@@H](CC1CCCCC1)C(=O)N[C@@H](CCCCNS(C)(=O)=O)C(=O)Nc1nccs1)N(O)C=O	81.1
Cc1ccc(NC(=O)c2ccc(CN3CCCN(Cc4cccc(O)c4)CC3)cc2)cc1F	591
CCOC(=O)c1c(CCc2ccc(C(F)(F)F)cc2)nc2c(c1-c1ccc(C(=O)N[C@@H](C)c3ccncc3)cc1)C(=O)N1CCC[C@@H]21	924
CC1(C)NC(N)=NC(=N)N1OCc1nc(N)nc(Nc2ccccc2)n1	274
COc1ccc2c(c1)CC(C)(C)NC2CCCCCCCCC1NC(C)(C)Cc2cc(OC)ccc21 (stereo not drawn)	1300
COc1cc(CNCCCCCCNCc2cc(OC)cc3ccccc23)c2ccccc2c1	590
O=C(c1cccc(Br)c1)N1CCN(c2ccc([N+](=O)[O-])c(NC3CC3)c2)CC1	936
O=C(Nc1ccc(Cn2ncc(N3CCCNCC3)c(Cl)c2=O)cc1)Nc1ccc(F)cc1[N+](=O)[O-]	1100
COc1ccc(-c2ccc(NC(=O)c3cccc(Cl)c3)c(F)c2)cc1CNC(C)C	895
